From US9234000B2, “Benzylamine derivatives as inhibitors of plasma kallikrein” (KalVista Pharmaceuticals Limited, priority 2011, dated 2016)
Read-outs that look alike come from different tables or passages of the source.

Assays:
Human KLK1 = Human KLK1 (Homo sapiens (Human), UniProt P06870); assay: Determination of the IC50 for KLK1; assay type: biochemical; settings: Human KLK1, 37° C., substrate H-DVal-Leu-Arg-AFC
Protocol: Determination of the IC50 for KLK1
(§1) KLK1 inhibitory activity in vitro was determined using standard published methods (see e.g. Johansen et al., Int. J. Tiss. Reac. 1986, 8, 185; Shori et al., Biochem. Pharmacol., 1992, 43, 1209; Stürzebecher et al., Biol. Chem. Hoppe-Seyler, 1992, 373, 1025). Human KLK1 (Callbiochem) was incubated at 37° C. with the fluorogenic substrate H-DVal-Leu-Arg-AFC and various concentrations of the test compound. Residual enzyme activity (initial rate of reaction) was determined by measuring the change in optical absorbance at 410 nm and the IC50 value for the test compound was determined.

Human plasma kallikrein = Human plasma kallikrein (Homo sapiens (Human), UniProt P03952); assay: Determination of the IC50 for plasma kallikrein; assay type: biochemical; settings: 37° C., read-out: IC50 (human PKal)
Protocol: Determination of the IC50 for Plasma Kallikrein
as §1, with “Plasma kallikrein” for “KLK1”, “Stiirzebecher” for “Stürzebecher”, “plasma kallikrein (Protogen)” for “KLK1 (Callbiochem)”, “H-DPro-Phe-Arg-AFC” for “H-DVal-Leu-Arg-AFC”

[1] = fluorogenic substrate H-DPro-Phe-Arg-AFC

Chain of Human plasma kallikrein (P03952 391-638): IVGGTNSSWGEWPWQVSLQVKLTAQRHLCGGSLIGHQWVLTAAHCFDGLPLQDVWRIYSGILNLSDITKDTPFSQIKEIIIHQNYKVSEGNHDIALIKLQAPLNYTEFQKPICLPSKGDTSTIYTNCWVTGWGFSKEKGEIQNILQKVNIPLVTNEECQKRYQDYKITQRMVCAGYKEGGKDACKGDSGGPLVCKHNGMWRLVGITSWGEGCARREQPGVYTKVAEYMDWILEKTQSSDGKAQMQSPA
Chain of Human plasma kallikrein (P03952 20-390 partner): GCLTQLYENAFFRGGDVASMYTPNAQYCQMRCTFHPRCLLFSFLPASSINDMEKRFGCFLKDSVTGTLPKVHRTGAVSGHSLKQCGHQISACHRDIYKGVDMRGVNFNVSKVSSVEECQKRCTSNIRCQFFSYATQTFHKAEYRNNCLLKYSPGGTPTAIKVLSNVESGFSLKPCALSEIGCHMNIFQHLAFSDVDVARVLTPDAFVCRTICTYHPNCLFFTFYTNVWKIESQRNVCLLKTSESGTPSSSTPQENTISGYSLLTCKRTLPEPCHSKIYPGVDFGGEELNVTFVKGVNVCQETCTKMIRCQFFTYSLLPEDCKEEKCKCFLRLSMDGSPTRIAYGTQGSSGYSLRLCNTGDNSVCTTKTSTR
Chain of Human KLK1 (P06870 25-262): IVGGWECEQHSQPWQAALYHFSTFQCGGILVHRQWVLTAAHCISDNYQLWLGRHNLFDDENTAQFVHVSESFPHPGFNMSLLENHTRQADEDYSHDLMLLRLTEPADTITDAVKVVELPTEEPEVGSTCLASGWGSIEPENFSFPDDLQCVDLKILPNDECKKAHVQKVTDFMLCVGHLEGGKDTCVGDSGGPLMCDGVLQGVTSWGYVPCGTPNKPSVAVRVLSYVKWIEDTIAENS

Row | Structure (SMILES) | IC50 (Human KLK1; Table 13) [µM] | IC50 (Human plasma kallikrein; substrate H-DPro-Phe-Arg-AFC) [µM] | IC50 (Human plasma kallikrein; [1]) [µM] | IC50 (Human KLK1; Table 12) [µM]
1 | CCOc1ccc(C[C@@H](NC(=O)c2cc3ccccc3s2)C(=O)N[C@@H](Cc2ccccc2)C(=O)NCc2ccc(CN)cc2)cc1 [Example 83, Benzo[b]thiophene-2-carboxylic acid[(R)-1-[(S)-1-(4-aminomethyl-benzylcarbamoyl)-2-phenyl-ethylcarbamoyl]-2-(4-ethoxy-phenyl)-ethyl]-amide] | > 10 | 0.254 |  | 
2 | CCOc1ccc(C[C@@H](NC(=O)CCCc2ccccc2)C(=O)N[C@@H](Cc2ccccc2)C(=O)NCc2ccc(CN)cc2)cc1 [Example 87, N-[(R)-1-[(S)-1-(4-Aminomethyl-benzylcarbamoyl)-2-phenyl-ethylcarbamoyl]-2-(4-ethoxy-phenyl)-ethyl]-4-phenyl-butyramide] | 3.4 | 0.755 |  | 
3 | CCOc1ccc(C[C@@H](NC(=O)CC)C(=O)N(CC)[C@@H](Cc2ccccc2)C(=O)NCc2ccc(CN)cc2)cc1 [Example 65, (S)-N-(4-Aminomethyl-benzyl)-2-{[(R)-3-(4-ethoxy-phenyl)-2-propionylamino-propionyl]-ethyl-amino}-3-phenyl-propionamide] |  |  | ≥ 10 | 
4 | COC(=O)CN[C@H](CC1CCCCC1)C(=O)N[C@@H](Cc1ccccc1)C(=O)NCc1ccc(CN)cc1 [Example 47, {(R)-1-[(S)-1-(4-Aminomethyl-benzylcarbamoyl)-2-phenyl-ethylcarbamoyl]-2-cyclohexyl-ethylamino}-acetic acid methyl ester] |  |  | 2.1 | > 10
5 | NCc1ccc(CNC(=O)[C@H](Cc2ccccc2)NC(=O)[C@@H](CC2CCCCC2)NCC(N)=O)cc1 [Example 50, (R)-N-[(S)-1-(4-Aminomethyl-benzylcarbamoyl)-2-phenyl-ethyl]-2-(carbamoylmethyl-amino)-3-cyclohexyl-propionamide] |  |  | 4.3 | 5
6 | CCOc1ccc(C[C@@H](N)C(=O)N[C@@H](C(=O)NCc2ccc(CN)cc2)[C@@H](O)c2ccccc2)cc1 [Example 60, (R)-2-Amino-N-[(1R,2S)-1-(4-aminomethyl-benzylcarbamoyl)-2-hydroxy-2-phenyl-ethyl]-3-(4-ethoxy-phenyl)-propionamide] |  |  | 10 | 
7 | CCOc1ccc(C[C@@H](NC(=O)Nc2ccccc2)C(=O)N[C@@H](Cc2ccccc2)C(=O)NCc2ccc(CN)cc2)cc1 [Example 69, (R)-N-[(S)-1-(4-Aminomethyl-benzylcarbamoyl)-2-phenyl-ethyl]-3-(4-ethoxy-phenyl)-2-(3-phenyl-ureido)-propionamide] | > 10 | 0.621 |  | 
8 | CCOc1ccc(C[C@@H](NC(=O)CC)C(=O)N[C@@H](C(=O)NCc2ccc(CN)cc2)[C@@H](O)c2ccccc2)cc1 [Example 62, (2R,3S)-N-(4-Aminomethyl-benzyl)-2-[(R)-3-(4-ethoxy-phenyl)-2-propionylamino-propionylamino]-3-hydroxy-3-phenyl-propionamide] |  |  | ≥ 10 | 
9 | CCOc1ccc(C[C@H](C(=O)N[C@@H](Cc2ccccc2)C(=O)NCc2ccc(CN)cc2)N(C)C)cc1 [Example 13, (R)-N-[(S)-1-(4-Aminomethyl-benzylcarbamoyl)-2-phenyl-ethyl]-2-dimethylamino-3-(4-ethoxy-phenyl)-propionamide] |  |  | 10 | 

Other lines, results leading:

Row | IC50 (Human KLK1; Table 13) [µM] | IC50 (Human plasma kallikrein; substrate H-DPro-Phe-Arg-AFC) [µM] | IC50 (Human plasma kallikrein; [1]) [µM] | IC50 (Human KLK1; Table 12) [µM] | Structure (SMILES)
10 | > 10 | 0.232 |  |  | CCOc1ccc(C[C@@H](NC(=O)c2ccccc2)C(=O)N[C@@H](Cc2ccc(OC)cc2)C(=O)NCc2ccc(CN)cc2)cc1 [Example 146, N-[(R)-1-[(S)-1-(4-Aminomethyl-benzylcarbamoyl)-2-(4-methoxy-phenyl)-ethylcarbamoyl]-2-(4-ethoxy-phenyl)-ethyl]-benzamide]
11 | > 10 | 0.058 |  |  | CCOc1ccc(C[C@@H](NC(=O)c2sc(C)nc2C)C(=O)N[C@@H](Cc2ccccc2)C(=O)NCc2ccc(CN)cc2)cc1 [Example 111, 2,4-Dimethyl-thiazole-5-carboxylic acid [(R)-1-[(S)-1-(4-aminomethyl-benzylcarbamoyl)-2-phenyl-ethylcarbamoyl]-2-(4-ethoxy-phenyl)-ethyl]-amide]
12 | > 10 | 0.096 |  |  | CCOc1ccc(C[C@@H](NC(=O)c2ccccc2)C(=O)N[C@@H](Cc2ccc(Cl)cc2)C(=O)NCc2ccc(CN)cc2)cc1 [Example 142, N-[(R)-1-[(S)-1-(4-Aminomethyl-benzylcarbamoyl)-2-(4-chloro-phenyl)-ethylcarbamoyl]-2-(4-ethoxy-phenyl)-ethyl]-benzamide]
13 | > 10 | 0.31 |  |  | CCOc1ccc(C[C@@H](NC(=O)c2cncc(OC)c2)C(=O)N[C@@H](Cc2ccccc2)C(=O)NCc2ccc(CN)cc2)cc1 [Example 121, N-[(R)-1-[(S)-1-(4-Aminomethyl-benzylcarbamoyl)-2-phenyl-ethylcarbamoyl]-2-(4-ethoxy-phenyl)-ethyl]-5-methoxy-nicotinamide]
14 | 6.1 | 0.048 |  |  | CCOc1ccc(C[C@@H](NC(=O)c2scnc2C)C(=O)N[C@@H](Cc2ccccc2)C(=O)NCc2ccc(CN)cc2)cc1 [Example 117, 4-Methyl-thiazole-5-carboxylic acid[(R)-1-[(S)-1-(4-aminomethyl-benzylcarbamoyl)-2-phenyl-ethylcarbamoyl]-2-(4-ethoxy-phenyl)-ethyl]-amide]
15 | > 10 | 10 |  |  | CC(C)C[C@@H](NC(=O)c1ccccc1)C(=O)N[C@@H](Cc1ccccc1)C(=O)NCc1ccc(CN)cc1 [Example 133, N-{(R)-1-[(S)-1-(4-Aminomethyl-benzylcarbamoyl)-2-phenyl-ethylcarbamoyl]-3-methyl-butyl}-benzamide]
16 | > 10 | 1.11 |  |  | CCOc1ccc(C[C@@H](NC(=O)CNS(=O)(=O)c2ccc(C)cc2)C(=O)N[C@@H](Cc2ccccc2)C(=O)NCc2ccc(CN)cc2)cc1 [Example 101, (S)-N-(4-Aminomethyl-benzyl)-2-{(R)-3-(4-ethoxy-phenyl)-2-[2-(toluene-4-sulfonylamino)-acetylamino]-propionylamino}-3-phenyl-propionamide]
17 | > 10 | 0.064 |  |  | CCOc1ccc(C[C@@H](NC(=O)c2ccc(Cl)cc2)C(=O)N[C@@H](Cc2ccccn2)C(=O)NCc2ccc(CN)cc2)cc1 [Example 163, N-[(R)-1-[(S)-1-(4-Aminomethyl-benzylcarbamoyl)-2-pyridin-2-yl-ethylcarbamoyl]-2-(4-ethoxy-phenyl)-ethyl]-4-chloro-benzamide]
18 | > 10 | 0.31 |  |  | COc1ccc(C[C@@H](NC(=O)c2ccccc2)C(=O)N[C@@H](Cc2ccccc2)C(=O)NCc2ccc(CN)cc2)cc1 [Example 138, N-[(R)-1-[(S)-1-(4-Aminomethyl-benzylcarbamoyl)-2-phenyl-ethylcarbamoyl]-2-(4-methoxy-phenyl)-ethyl]-benzamide]
19 | > 10 | 0.424 |  |  | Cc1ccc(C[C@@H](NC(=O)c2ccccc2)C(=O)N[C@@H](Cc2ccccc2)C(=O)NCc2ccc(CN)cc2)cc1 [Example 135, N-{(R)-1-[(S)-1-(4-Aminomethyl-benzylcarbamoyl)-2-phenyl-ethylcarbamoyl]-2-p-tolyl-ethyl}-benzamide]
20 | > 10 | 1.14 |  |  | NCc1ccc(CNC(=O)[C@H](Cc2ccccc2)NC(=O)[C@@H](Cc2ccccc2)NC(=O)c2ccccc2)cc1 [Example 139, N-{(R)-1-[(S)-1-(4-Aminomethyl-benzylcarbamoyl)-2-phenyl-ethylcarbamoyl]-2-phenyl-ethyl}-benzamide]
